From US20100105727A1, “NOVEL BENZAMIDE DERIVATIVES AND PROCESS FOR THE PREPARTION THEREOF” (DONG-A-PHARM. CO., LTD., priority 2007, published 2010)

Target: T1, human 5-HT4 receptor (Homo sapiens, UniProt Q13639)
T1 construct: expressed in transfected cells; host or cells: COS-7
Test: Binding affinity of compounds for 5-HT4 receptor (radioligand displacement, membrane lysates of COS-7 cells)
Settings: inhibition of specific binding of 0.595 nM [H3]-AGR113808; COS-7 cell membrane lysates expressing human 5-HT4 receptor
Method: For this purpose, COS-7 cells expressing the human 5-HT4 receptor were constructed and lysed to obtain cell membrane lysates which were then used in binding assay experiments. For binding assay, the membrane lysates were mixed and incubated with different concentrations of test materials and [H3]-AGR113808. […] After incubation was completed, the reaction products were collected in a GF/B glass fiber filter using a Packard cell harvester, and the bound radioactivity was then determined using a liquid cell scintillation counter (Packard TopCount NXT™, Perkin Elmer). Specific binding of the radioligand to the 5-HT4 receptor was calculated by subtracting the non-specific binding of the radioligand from the total radioligand binding. IC50 was calculated from % inhibition of specific binding of the radioligand to the 5-HT4 receptor, with respect to varying concentrations of the test materials.

T1 sequence (Q13639 whole entry): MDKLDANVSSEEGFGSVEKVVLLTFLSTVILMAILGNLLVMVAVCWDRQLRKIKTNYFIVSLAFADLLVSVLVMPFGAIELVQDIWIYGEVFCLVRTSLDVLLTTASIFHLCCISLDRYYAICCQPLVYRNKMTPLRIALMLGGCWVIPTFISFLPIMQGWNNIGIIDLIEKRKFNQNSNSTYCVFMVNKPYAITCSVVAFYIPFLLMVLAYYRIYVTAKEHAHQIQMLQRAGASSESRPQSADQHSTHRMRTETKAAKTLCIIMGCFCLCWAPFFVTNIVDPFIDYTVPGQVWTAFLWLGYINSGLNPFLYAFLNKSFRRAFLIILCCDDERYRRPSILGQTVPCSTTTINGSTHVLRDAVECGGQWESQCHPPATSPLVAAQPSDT

SMILES | IC50
C=CCOC(=O)N1CCC(CN2CC[C@H](NC(=O)c3cc(Cl)c(N)cc3OC)[C@H](OC)C2)CC1 (relative stereo) [Compound 10, allyl 4-[(cis-4-(4-amino-5-chloro-2-methoxybenzamido)-3-methoxypiperidin-1-yl)methyl]piperidine-1-carboxylate] | 93 nM
CCCCC(=O)N1CCC(CN2CC[C@H](NC(=O)c3cc(Cl)c(N)cc3OC)[C@H](OC)C2)CC1 (relative stereo) [Compound 22, cis-4-amino-5-chloro-N-[1-((1-pentanoylpiperidin-4-yl)methyl)-3-methoxypiperidin-4-yl]-2-methoxybenzamide] | 73 nM
CCCCCC(=O)N1CCC(CN2CC[C@H](NC(=O)c3cc(Cl)c(N)cc3OC)[C@H](OC)C2)CC1 (relative stereo) [Compound 23, cis-4-amino-5-chloro-N-[1-((1-hexanoylpiperidin-4-yl)methyl)-3-methoxypiperidin-4-yl]-2-methoxybenzamide] | 61 nM
CCCC(C)C(=O)N1CCC(CN2CC[C@H](NC(=O)c3cc(Cl)c(N)cc3OC)[C@H](OC)C2)CC1 (relative stereo) [Compound 24, cis-4-amino-5-chloro-N-[1-((1-(2-methylpentanoyl)piperidin-4-yl)methyl)-3-methoxypiperidin-4-yl]-2-methoxybenzamide] | 58 nM
COc1cc(N)c(Cl)cc1C(=O)N[C@H]1CCN(CC2CCN(C(=O)OCCCC(C)C)CC2)C[C@H]1OC (relative stereo) [Compound 13, 4-methyl-pentyl 4-[(cis-4-(4-amino-5-chloro-2-methoxybenzamido)-3-methoxypiperidin-1-yl)methyl]piperidine-1-carboxylate] | 146 nM
COc1cc(N)c(Cl)cc1C(=O)N[C@H]1CCN(CCCCCC(=O)Nc2cc(C)cc(C)n2)C[C@H]1OC (relative stereo) [Compound 60, cis-4-amino-5-chloro-N-[1-(6-oxo-6-(4,6-dimethylpyridin-2-ylamino)hexyl)-3-methoxypiperidin-4-yl]-2-methoxybenzamide] | 85 nM
CCCCC(CC)COC(=O)N1CCC(CN2CC[C@H](NC(=O)c3cc(Cl)c(N)cc3OC)[C@H](OC)C2)CC1 (relative stereo) [Compound 11, 2-ethylhexyl 4-[(cis-4-(4-amino-5-chloro-2-methoxybenzamido)-3-methoxypiperidin-1-yl)methyl]piperidine-1-carboxylate] | 30 nM
COc1cc(N)c(Cl)cc1C(=O)N[C@@H]1CCN(CC2CCN(S(C)(=O)=O)CC2)C[C@@H]1OC [Compound 44, (3S,4R)-4-amino-5-chloro-N-[1-((1-(methylsulfonyl)piperidin-4-yl)methyl)-3-methoxypiperidin-4-yl]-2-methoxybenzamide] | 116 nM
CCC(C)CCOC(=O)N1CCC(CN2CC[C@H](NC(=O)c3cc(Cl)c(N)cc3OC)[C@H](OC)C2)CC1 (relative stereo) [Compound 12, 3-methyl-pentyl 4-[(cis-4-(4-amino-5-chloro-2-methoxybenzamido)-3-methoxypiperidin-1-yl)methyl]piperidine-1-carboxylate] | 192 nM
COc1cc(N)c(Cl)cc1C(=O)N[C@H]1CCN(CC2CCN(S(=O)(=O)C(C)C)CC2)C[C@H]1OC (relative stereo) [Compound 42, cis-4-amino-5-chloro-N-[1-((1-(isopropylsulfonyl)piperidin-4-yl)methyl)-3-methoxypiperidin-4-yl]-2-methoxybenzamide] | 47 nM
COc1cc(N)c(Cl)cc1C(=O)N[C@H]1CCN(CC2CCN(C(=O)CC(C)(C)C)CC2)C[C@H]1OC (relative stereo) [Compound 26, cis-4-amino-5-chloro-N-[1-((1-(3,3-dimethylbutanoyl)piperidin-4-yl)methyl)-3-methoxypiperidin-4-yl]-2-methoxybenzamide] | 45 nM
